Measurements taken from patent US9988400B2 (Genentech, Inc., priority 2013, dated 2018).

Biological target: T1, HEK cells stably transfected with tetracycline inducible hNR1 and hNR2A (Homo sapiens, UniProt Q05586+Q12879)
T1 construct: expressed in transfected cells; host or cells: HEK cells, stably transfected, tetracycline/doxycycline inducible
Test: Assay 1: Cell-Based Assay, cytosolic calcium response to positive allosteric modulators (with 30 μM glycine and 300 nM L-glutamate, EC30)
Details: for Max %: responses scaled relative to 100 μM L-glutamate maximal response (100%) and 0 μM L-glutamate (0%); for EC50: cytosolic calcium response, with 30 μM glycine and 300 nM L-glutamate (EC30), — = no plateau was reached
Outline: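 Cells induced 24 h with 7.5 μg mL^−1 doxycycline plus 500 μM (+)-ketamine, loaded 60 min at 37 °C with calcium dye in Mg-free HBSS (1.8 mM Ca, probenecid, 10 μM (+)-ketamine, pH 7.15). Peak RFU over 5 min after compound addition, scaled to 100 μM L-glutamate (100%) and 0 μM (0%); four-parameter Hill fit for EC50, max % if no plateau.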

T1 sequence (Q12879 23-1464, other chains not shown): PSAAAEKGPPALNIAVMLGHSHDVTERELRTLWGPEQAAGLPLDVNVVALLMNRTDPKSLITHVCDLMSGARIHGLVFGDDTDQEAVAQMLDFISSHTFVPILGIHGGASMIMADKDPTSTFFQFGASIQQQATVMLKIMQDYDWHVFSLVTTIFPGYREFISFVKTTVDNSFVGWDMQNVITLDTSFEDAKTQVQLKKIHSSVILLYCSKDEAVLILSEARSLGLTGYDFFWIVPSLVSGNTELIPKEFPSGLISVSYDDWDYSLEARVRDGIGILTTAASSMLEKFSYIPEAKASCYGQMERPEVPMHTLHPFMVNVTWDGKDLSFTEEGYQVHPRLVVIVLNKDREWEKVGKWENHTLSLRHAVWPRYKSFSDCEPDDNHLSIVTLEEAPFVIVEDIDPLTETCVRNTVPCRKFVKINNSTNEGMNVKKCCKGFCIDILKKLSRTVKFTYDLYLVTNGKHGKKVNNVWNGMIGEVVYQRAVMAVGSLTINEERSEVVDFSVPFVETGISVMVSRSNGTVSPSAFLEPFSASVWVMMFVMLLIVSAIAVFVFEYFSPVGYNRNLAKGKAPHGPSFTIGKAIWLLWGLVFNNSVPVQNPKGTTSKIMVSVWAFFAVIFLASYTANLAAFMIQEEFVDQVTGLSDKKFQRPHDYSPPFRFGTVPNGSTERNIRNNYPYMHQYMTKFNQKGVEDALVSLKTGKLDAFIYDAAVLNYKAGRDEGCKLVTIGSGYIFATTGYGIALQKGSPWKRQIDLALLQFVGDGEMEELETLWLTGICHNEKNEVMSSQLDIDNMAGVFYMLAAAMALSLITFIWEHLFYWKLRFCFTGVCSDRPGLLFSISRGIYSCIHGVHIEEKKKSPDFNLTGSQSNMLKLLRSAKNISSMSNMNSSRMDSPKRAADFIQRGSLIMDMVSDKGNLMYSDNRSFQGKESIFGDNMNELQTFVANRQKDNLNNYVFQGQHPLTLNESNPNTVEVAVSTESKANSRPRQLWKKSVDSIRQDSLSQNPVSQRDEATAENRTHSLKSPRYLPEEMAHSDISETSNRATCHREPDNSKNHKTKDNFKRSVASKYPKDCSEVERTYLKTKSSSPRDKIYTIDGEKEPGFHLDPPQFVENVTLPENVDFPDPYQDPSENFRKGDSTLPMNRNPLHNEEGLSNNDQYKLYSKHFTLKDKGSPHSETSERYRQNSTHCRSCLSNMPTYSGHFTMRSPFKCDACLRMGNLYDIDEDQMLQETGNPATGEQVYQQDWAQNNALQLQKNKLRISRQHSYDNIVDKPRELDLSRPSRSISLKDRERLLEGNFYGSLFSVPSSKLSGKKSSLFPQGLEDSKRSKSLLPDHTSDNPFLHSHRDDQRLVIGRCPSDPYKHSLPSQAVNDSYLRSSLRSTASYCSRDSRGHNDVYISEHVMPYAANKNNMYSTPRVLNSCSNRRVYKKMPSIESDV

Compound `CCNC(=O)c1c(C)sc2nc(Cc3cc(C#N)ccc3F)cc(=O)n12` [Example 21.31, 7-(5-cyano-2-fluorobenzyl)-N-ethyl-2-methyl-5-oxo-5H-thiazolo[3,2-a]pyrimidine-3-carboxamide] has a Max % (Table 2) of 88.8%.

For `Cc1sc2nc(COc3ccc(F)cc3)cc(=O)n2c1C1CC1C#N` (single isomer, unassigned) [Example 4.20, cis-2-[7-(4-Fluorophenoxymethyl)-2-methyl-5-oxo-5H-[1,3]thiazolo[3,2-a]pyrimidin-3-yl]cyclopropane-1-carbonitrile], the EC50 (Table 2) was 2.4 µM and the Max % (Table 2) was 93.9%.

With `Cc1sc2nc(Cn3nc(C(F)(F)F)cc3Cl)cc(=O)n2c1C1CC1C` (single isomer, unassigned) [compound 154] the EC50 (Table 3) was 0.504 µM.

For `CCNC(=O)c1c(OCC)sc2nc(Cc3cccc(C(F)(F)F)c3F)cc(=O)n12` [compound 156, 2-ethoxy-N-ethyl-7-[[2-fluoro-3-(trifluoromethyl)phenyl]methyl]-5-oxo-thiazolo[3,2-a]pyrimidine-3-carboxamide], the EC50 (Table 3) was 1.47 µM.

`Cc1sc2nc(Cc3nn(C)cc3Cl)cc(=O)n2c1C1CC1C#N` (centres unmarked) [compound 271, 2-[7-[(4-chloro-1-methyl-pyrazol-3-yl)methyl]-2-methyl-5-oxo-thiazolo[3,2-a]pyrimidin-3-yl]cyclopropanecarbonitrile] showed an EC50 (Table 3) of 3.57 µM.

`CCNC(=O)c1c(C(F)(F)F)sc2nc(Cn3nc(C4CC4)cc3C(F)(F)F)cc(=O)n12` [Example 16.4, 7-((3-cyclopropyl-5-(trifluoromethyl)-1H-pyrazol-1-yl)methyl)-N-ethyl-5-oxo-2-(trifluoromethyl)-5H-thiazolo[3,2-a]pyrimidine-3-carboxamide] showed an EC50 (Table 2) of 9.2 µM and a Max % (Table 2) of 130%.

`CCN(Cc1cc(=O)n2c(CS(C)(=O)=O)c(C)sc2n1)c1ccc(F)cc1` [Example 10.15, 7-[(N-ethyl-4-fluoro-anilino)methyl]-2-methyl-3-(methylsulfonylmethyl)thiazolo[3,2-a]pyrimidin-5-one] was tested, and the EC50 (Table 2) was 1.3 µM and the Max % (Table 2) was 156%.

With `CCc1sc2nc(Cc3cccc(C(F)(F)F)c3F)cc(=O)n2c1C(=O)NC` [compound 93, 2-ethyl-7-[[2-fluoro-3-(trifluoromethyl)phenyl]methyl]-N-methyl-5-oxo-thiazolo[3,2-a]pyrimidine-3-carboxamide] the EC50 (Table 3) was 1.83 µM.

`CNC(=O)c1c(C)sc2nc(Cc3cc(Cl)cc(C#N)c3)cc(=O)n12` [Example 21.51, 7-[(3-chloro-5-cyano-phenyl)methyl]-N,2-dimethyl-5-oxo-thiazolo[3,2-a]pyrimidine-3-carboxamide] showed a Max % (Table 2) of 75.0%.

`CC(=O)c1c(C)sc2nc(COc3ccc(F)cc3)cc(=O)n12` [Example 2.5, 3-acetyl-7-((4-fluorophenoxy)methyl)-2-methyl-5H-thiazolo[3,2-a]pyrimidin-5-one] gave an EC50 (Table 2) of 32.9 µM and a Max % (Table 2) of 115%.

With `Cc1sc2nc(Cn3nc(Cl)cc3C(F)(F)F)cc(=O)n2c1C(=O)C(C)C` [compound 178, 7-[[3-chloro-5-(trifluoromethyl)pyrazol-1-yl]methyl]-2-methyl-3-(2-methylpropanoyl)thiazolo[3,2-a]pyrimidin-5-one] the EC50 (Table 3) was 0.354 µM.

`CCN(Cc1cc(=O)n2c(C(O)CO)c(C)sc2n1)c1ccc(F)cc1` (centres unmarked) [Example 12.5, 3-(1,2-dihydroxyethyl)-7-[(N-ethyl-4-fluoro-anilino)methyl]-2-methyl-thiazolo[3,2-a]pyrimidin-5-one] gave an EC50 (Table 2) of 0.974 µM and a Max % (Table 2) of 153%.

`CCNC(=O)c1c(C)sc2nc(Cc3cccc4ccccc34)cc(=O)n12` [Example 21.35, N-ethyl-2-methyl-7-(naphthalen-1-ylmethyl)-5-oxo-5H-thiazolo[3,2-a]pyrimidine-3-carboxamide] gave a Max % (Table 2) of 77.8%.

`CNC(=O)c1c(C)sc2nc(Cc3cccc(F)c3F)cc(=O)n12` [Example 21.55, 7-[(2,3-difluorophenyl)methyl]-N,2-dimethyl-5-oxo-thiazolo[3,2-a]pyrimidine-3-carboxamide] was tested, and the Max % (Table 2) was 43.8%.

`CCN(Cc1cc(=O)n2c(N3CCCC3)c(C)sc2n1)c1ccc(F)cc1` [Example 6.3, 7-((ethyl(4-fluorophenyl)amino)methyl)-2-methyl-3-(pyrrolidin-1-yl)-5H-thiazolo[3,2-a]pyrimidin-5-one] was tested, and the EC50 (Table 2) was 10.1 µM and the Max % (Table 2) was 91.9%.

Work on `CCNC(=O)c1c(C)sc2nc(Cc3cc(C#N)ccc3CC)cc(=O)n12` [Example 21.64, 7-(5-cyano-2-ethylbenzyl)-N-ethyl-2-methyl-5-oxo-5H-thiazolo[3,2-a]pyrimidine-3-carboxamide] yielded a Max % (Table 2) of 120%.

`Cc1sc2nc(Cn3nc(C(F)(F)F)cc3Br)cc(=O)n2c1[C@@H]1C[C@@H]1C#N` (single isomer, unassigned) [compound 274] was tested, and the EC50 (Table 3) was 0.012 µM.

With `N#CC1CC1c1c(C(F)(F)F)sc2nc(Cn3nc(C(F)(F)F)cc3Cl)c(F)c(=O)n12` (single isomer, unassigned) [compound 276] the EC50 (Table 3) was 0.0364 µM.

In the case of `CCNC(=O)c1c(C)sc2nc(Cc3ccccc3F)cc(=O)n12` [Example 21.44, N-ethyl-7-(2-fluorobenzyl)-2-methyl-5-oxo-5H-thiazolo[3,2-a]pyrimidine-3-carboxamide], the Max % (Table 2) is reported as 51.9%.

`CNC(=O)c1c(C)sc2nc(Cc3ccc(F)cc3C(F)(F)F)cc(=O)n12` [Example 21.59, 7-[[4-fluoro-2-(trifluoromethyl)phenyl]methyl]-N,2-dimethyl-5-oxo-thiazolo[3,2-a]pyrimidine-3-carboxamide] showed a Max % (Table 2) of 42.5%.
